System: KMO
Assay: KMO inhibition: L-Kynurenine hydroxylation to 3-Hydroxy-Kynurenine monitored by LC/MS
Type: biochemical
Conditions: compound at 10 uM; footnote: some portion of activity of amides may be due to contribution of acid precursor
Procedure: A generalized procedure for monitoring L-Kynurenine (KYN) hydroxylation to form product 3-Hydroxy-Kynurenine (30H-KYN) by LC/MS is described below. Product is quantified by multiple reaction monitoring using MS.
A method of monitoring L-Kynurenine (KYN) hydroxylation to form product 3-Hydroxy-Kynurenine (30H-KYN) by LC/MS is described below. Product is quantified by multiple reaction monitoring.
• Compound: Stock concentrations: 10 mM in 100% DMSO • Enzyme: KMO enzyme prepared at Evotec via mitochondria isolation from CHO-GST HIS KMO cells • Substrate: L-Kynurenine (Sigma: Cat# K3750) • [stock concentration: 10 mM in 100 mM potassium phosphate buffer, pH 7.4]
A method of monitoring L-Kynurenine (KYN) hydroxylation to form 3-Hydroxy-Kynurenine (30H-KYN) by LC/MS is described. Product is quantified by multiple reaction monitoring (MRM method).

| Compound | % Inhibition at 10 uM* [%] |
| --- | --- |
| CCC(C)Oc1ccc(-c2ccnc(C(=O)O)c2)cc1Cl (stereo in doubt) [listing 1 of 2 here] | 50 |
| CCC(C)Oc1ccc(-c2ccnc(C(=O)O)c2)cc1Cl (stereo in doubt) [listing 2 of 2 here] | 82 |
| CCC(C)Oc1ccc(-c2cc(C(=O)O)ncn2)cc1Cl (stereo in doubt) [6-(4-(R)-sec-Butoxy-3-chloro-phenyl)-pyrimidine-4-carboxylic acid] | 100 |
| CCC(C)Oc1ccc(-c2cc(C(=O)O)ncn2)cc1Cl (stereo in doubt) [6-(4-(S)-sec-Butoxy-3-chloro-phenyl)-pyrimidine-4-carboxylic acid] | 100 |
| O=C(O)c1cc(-c2ccc(OC3CC3)c(Cl)c2)ccn1 [4-(3-Chloro-4-cyclopropoxy-phenyl)-pyridine-2-carboxylic acid] | 100 |
| CC(C)Oc1ccc(-c2ccnc(C(=O)O)c2)cc1Cl [4-(3-Chloro-4-isopropoxy-phenyl)-pyridine-2-carboxylic acid] | 80 |
| O=C1OCCc2c1ncnc2-c1ccc(OC2CC2)c(Cl)c1 [4-(3-chloro-4-cyclopropoxyphenyl)-5H,6H,8H-pyrano[3,4-d]pyrimidin-8-one] | 100 |
| O=C1OCc2c1ncnc2-c1ccc(OC2CC2)c(Cl)c1 [4-(3-chloro-4-cyclopropoxyphenyl)-5H,7H-furo[3,4-d]pyrimidin-7-one] | 100 |
| O=C(O)c1cc(-c2ccc3c(c2)OCO3)ncn1 [6-(2H-1,3-benzodioxol-5-yl)pyrimidine-4-carboxylic acid] | 101 |
| Nc1cc(-c2cc(C(=O)O)ncn2)ccc1Cl [6-(3-Amino-4-chloro-phenyl)-pyrimidine-4-carboxylic acid] | 101.01 |
| O=C(O)c1cc(-c2ccc(OC3CC3)c(Cl)c2)ncn1 [6-(3-Chloro-4-cyclopropoxy-phenyl)-pyrimidine-4-carboxylic acid] | 100 |
| Cc1nc(C(=O)O)cc(-c2ccc(OC(C)C)c(Cl)c2)n1 [6-(3-Chloro-4-isopropoxy-phenyl)-2-methyl-pyrimidine-4-carboxylic acid] | 70 |
| CC(C)c1ccc(-c2cc(C(=O)O)ncn2)cc1Cl [6-(3-Chloro-4-isopropyl-phenyl)-pyrimidine-4-carboxylic acid] | 100 |
| CC(C)c1ccc(-c2cc(C(=O)O)ncn2)cc1F [6-(3-Fluoro-4-isopropyl-phenyl)-pyrimidine-4-carboxylic acid] | 85 |
| Cc1nc(C(=O)O)cc(-c2ccc(C)c(F)c2)n1 [6-(3-Fluoro-4-methyl-phenyl)-2-methyl-pyrimidine-4-carboxylic acid] | 96 |
| O=C(O)c1cc(-c2ccc(C(=O)C3CC3)c(Cl)c2)ncn1 [6-(3-chloro-4-cyclopropanecarbonylphenyl)pyrimidine-4-carboxylic acid] | 101 |
| O=C(O)c1ncnc(-c2ccc(OC3CC3)c(Cl)c2)c1CO [6-(3-chloro-4-cyclopropoxyphenyl)-5-(hydroxymethyl)pyrimidine-4-carboxylic acid] | 100 |
| Cc1c(C(=O)O)ncnc1-c1ccc(OC2CC2)c(Cl)c1 [6-(3-chloro-4-cyclopropoxyphenyl)-5-methylpyrimidine-4-carboxylate] | 100 |
| Cc1nc2c(Cl)cc(-c3cc(C(=O)O)ncn3)cc2o1 [6-(4-chloro-2-methyl-1,3-benzoxazol-6-yl)pyrimidine-4-carboxylic acid] | 102 |
| O=C(O)c1cc(-c2cc(Cl)c3occc3c2)ncn1 [6-(7-Chloro-benzofuran-5-yl)-pyrimidine-4-carboxylic acid] | 100 |
| O=C(O)c1cc(-c2cc(Cl)c3c(c2)CCO3)ncn1 [6-(7-chloro-2,3-dihydro-1-benzofuran-5-yl)pyrimidine-4-carboxylic acid] | 102 |
| O=C(O)c1cc(-c2cc(Cl)c3oc(C4CC4)nc3c2)ncn1 [6-(7-chloro-2-cyclopropyl-1,3-benzoxazol-5-yl)pyrimidine-4-carboxylic acid] | 100 |
| Cc1nc2cc(-c3cc(C(=O)O)ncn3)cc(Cl)c2o1 [6-(7-chloro-2-methyl-1,3-benzoxazol-5-yl)pyrimidine-4-carboxylic acid] | 102 |
| Cn1c(=O)oc2c(Cl)cc(-c3cc(C(=O)O)ncn3)cc21 [6-(7-chloro-3-methyl-2-oxo-2,3-dihydro-1,3-benzoxazol-5-yl)pyrimidine-4-carboxylic acid] | 100 |

| Compound | % Inhibition at 10 uM* [%] |
| --- | --- |
| O=C(O)c1cc(-c2cc(Cl)c3c(c2)CCCO3)ncn1 [6-(8-Chloro-chroman-6-yl)-pyrimidine-4-carboxylic acid] | 100 |
| O=C(O)c1cc(-c2cc(Cl)c3c(c2)CCCN3)ncn1 [6-(8-chloro-1,2,3,4-tetrahydroquinolin-6-yl)pyrimidine-4-carboxylate] | 100 |
| CN1CCCc2cc(-c3cc(C(=O)O)ncn3)cc(Cl)c21 [6-(8-chloro-1-methyl-1,2,3,4-tetrahydroquinolin-6-yl)pyrimidine-4-carboxylic acid] | 100 |
| O=C([O-])c1cc(-c2cc(Cl)c3ncccc3c2)ncn1.[Na+] [6-(8-chloroquinolin-6-yl)pyrimidine-4-carboxylate] | 100 |
| O=C(O)c1cc(-c2cc(Cl)c3nccnc3c2)ncn1 [6-(8-chloroquinoxalin-6-yl)pyrimidine-4-carboxylic acid] | 102 |
| O=C(O)c1cc(-c2ccc3ncccc3c2)ncn1 [6-Quinolin-6-yl-pyrimidine-4-carboxylic acid] | 100 |
| CC(Oc1ccc(-c2cc(C(=O)O)ncn2)cc1Cl)C(F)(F)F (stereo not drawn) [6-[3-Chloro-4-(2,2,2-trifluoro-1-methyl-ethoxy)-phenyl]-pyrimidine-4-carboxylic acid] | 94 |
| O=C(O)c1cc(-c2ccc(OCCN3CCCCC3)c(Cl)c2)ncn1 [6-[3-Chloro-4-(2-piperidin-1-yl-ethoxy)-phenyl]-pyrimidine-4-carboxylic acid] | 90 |
| O=C(O)c1cc(-c2ccc(OC3CCNC3)c(Cl)c2)ncn1 (stereo not drawn) [6-[3-Chloro-4-(pyrrolidin-3-yloxy)-phenyl]-pyrimidine-4-carboxylic acid] | 80 |
| COC(C)c1ccc(-c2cc(C(=O)O)ncn2)cc1Cl (stereo not drawn) [6-[3-chloro-4-(1-methoxyethyl)phenyl]pyrimidine-4-carboxylic acid] | 101 |
| O=C(O)c1cc(-c2ccc(NC3CC3)c(Cl)c2)ncn1 [6-[3-chloro-4-(cyclopropylamino)phenyl]pyrimidine-4-carboxylic acid] | 101 |
| COCc1ccc(-c2cc(C(=O)O)ncn2)cc1Cl [6-[3-chloro-4-(methoxymethyl)phenyl]pyrimidine-4-carboxylic acid] | 105 |
| CSc1ccc(-c2cc(C(=O)O)ncn2)cc1Cl [6-[3-chloro-4-(methylsulfanyl)phenyl]pyrimidine-4-carboxylic acid] | 103 |
| C[S+]([O-])c1ccc(-c2cc(C(=O)O)ncn2)cc1Cl (stereo not drawn) [6-[3-chloro-4-(methylsulfinyl)phenyl]pyrimidine-4-carboxylic acid] | 100 |
| CS(=O)(=O)c1ccc(-c2cc(C(=O)O)ncn2)cc1Cl [6-[3-chloro-4-(methylsulfonyl)phenyl]pyrimidine-4-carboxylic acid] | 100 |
| O=C(Nc1cccnc1)c1cc(-c2ccc(Cl)c(OC3CCOC3)c2)ncn1 (stereo not drawn) [6-[4-Chloro-3-(tetrahydro-furan-3-yloxy)-phenyl]-pyrimidine-4-carboxylic acid pyridin-3-ylamide] | 88.39 |
| CN(C)Cc1ccc(-c2cc(C(=O)O)ncn2)cc1Cl [6-{3-chloro-4-[(dimethylamino)methyl]phenyl}pyrimidine-4-carboxylic acid] | 65 |
| O=C(O)c1cc(-c2ccc(C(O)C3CC3)c(Cl)c2)ncn1 (stereo not drawn) [6-{3-chloro-4-[cyclopropyl(hydroxy)methyl]phenyl}pyrimidine-4-carboxylic acid] | 90 |
| CN(c1ccc(-c2cc(C(=O)O)ncn2)cc1Cl)C1CC1 [6-{3-chloro-4-[cyclopropyl(methyl)amino]phenyl}pyrimidine-4-carboxylic acid] | 96 |
| O=S(=O)(Nc1cc(-c2ccc(OC3CC3)c(Cl)c2)ncn1)c1ccccc1F [N-[6-(3-chloro-4-cyclopropoxyphenyl)pyrimidin-4-yl]-2-fluorobenzene-1-sulfonamide] | 96 |
| O=S(=O)(Nc1cc(-c2ccc(OC3CC3)c(Cl)c2)ncn1)c1ccc(OC(F)(F)F)cc1 [N-[6-(3-chloro-4-cyclopropoxyphenyl)pyrimidin-4-yl]-4-(trifluoromethoxy)benzene-1-sulfonamide] | 88 |
| O=S(=O)(Nc1cc(-c2ccc(OC3CC3)c(Cl)c2)ncn1)c1ccc(F)cc1 [N-[6-(3-chloro-4-cyclopropoxyphenyl)pyrimidin-4-yl]-4-fluorobenzene-1-sulfonamide] | 98 |
| O=S(=O)(Nc1cc(-c2ccc(OC3CC3)c(Cl)c2)ncn1)c1ccccc1 [N-[6-(3-chloro-4-cyclopropoxyphenyl)pyrimidin-4-yl]benzenesulfonamide] | 73 |
| O=S(=O)(Nc1cc(-c2ccc(OC3CC3)c(Cl)c2)ncn1)C1CC1 [N-[6-(3-chloro-4-cyclopropoxyphenyl)pyrimidin-4-yl]cyclopropanesulfonamide] | 33 |
